The results in this text go back to patent publication US11174251B2, “Compositions and methods for inhibition of the JAK pathway” (Rigel Pharmaceuticals, Inc., priority 2010, dated 2021).

This experiment deals with T1, JAK3 (Homo sapiens, UniProt P52333).
T1 construct: The Ramos B-cell line was acquired from ATCC (ATCC Catalog No. CRL-1596); host or cells: Ramos B-cell line (human)
T1 sequence (P52333 1-1124): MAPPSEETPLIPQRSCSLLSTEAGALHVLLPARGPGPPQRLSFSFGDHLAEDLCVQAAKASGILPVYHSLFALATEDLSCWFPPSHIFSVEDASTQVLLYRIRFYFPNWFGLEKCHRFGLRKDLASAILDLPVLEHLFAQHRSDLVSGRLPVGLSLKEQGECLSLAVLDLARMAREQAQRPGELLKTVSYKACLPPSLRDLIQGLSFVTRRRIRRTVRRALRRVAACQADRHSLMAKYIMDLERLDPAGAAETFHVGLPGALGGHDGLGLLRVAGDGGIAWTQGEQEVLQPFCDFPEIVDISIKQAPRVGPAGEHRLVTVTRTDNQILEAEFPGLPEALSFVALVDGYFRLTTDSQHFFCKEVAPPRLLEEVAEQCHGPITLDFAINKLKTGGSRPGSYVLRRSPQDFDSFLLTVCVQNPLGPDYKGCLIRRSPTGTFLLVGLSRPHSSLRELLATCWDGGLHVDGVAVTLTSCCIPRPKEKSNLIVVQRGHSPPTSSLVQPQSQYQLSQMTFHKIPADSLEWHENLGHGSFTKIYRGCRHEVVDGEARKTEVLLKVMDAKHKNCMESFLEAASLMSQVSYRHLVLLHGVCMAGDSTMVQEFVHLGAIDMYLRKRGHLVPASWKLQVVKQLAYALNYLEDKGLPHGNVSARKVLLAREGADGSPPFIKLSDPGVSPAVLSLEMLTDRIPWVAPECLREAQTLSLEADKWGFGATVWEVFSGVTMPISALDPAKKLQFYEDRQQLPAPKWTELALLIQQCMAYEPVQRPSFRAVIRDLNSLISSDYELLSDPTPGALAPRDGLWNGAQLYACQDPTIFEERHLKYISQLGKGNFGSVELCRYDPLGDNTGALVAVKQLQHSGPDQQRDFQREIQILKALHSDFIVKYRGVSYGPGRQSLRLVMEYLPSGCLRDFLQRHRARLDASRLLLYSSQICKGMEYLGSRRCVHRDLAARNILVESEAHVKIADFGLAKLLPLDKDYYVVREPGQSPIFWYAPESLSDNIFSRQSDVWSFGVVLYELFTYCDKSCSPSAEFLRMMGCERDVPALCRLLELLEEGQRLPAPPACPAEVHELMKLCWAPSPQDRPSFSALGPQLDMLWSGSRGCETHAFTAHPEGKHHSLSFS
The experiment can be described thus: Assay for CD23 expression on Ramos B-cells stimulated by IL-4 (Table IV: ability to inhibit JAK3 activity). Format: cell-based. Conditions: tested under conditions described in Example 3 (so in the source). From the text:
One means of assaying for such inhibition is detection of the effect of the 2,4-pyrimidinediamine compounds on the upregulation of downstream gene products. In the Ramos/IL4 assay, B-cells are stimulated with the cytokine Interleukin-4 (IL-4) leading to the activation of the JAK/Stat pathway through phosphorylation of the JAK family kinases, JAK1 and JAK3, which in turn phosphorylate and activate the transcription factor Stat-6. […] To study the effect of inhibitors (for example, the 2,4-substituted pyrimindinediamine compounds described herein) on the JAK1 and JAK3 kinases, human Ramos B cells are stimulated with human IL-4. 20 to 24 hours post stimulation, cells are stained for upregulation of CD23 and analyzed using FACS.
B-cells stimulated with cytokine Interleukin-4 (IL-4) activate the JAK/Stat pathway through phosphorylation of the JAK family kinases, JAK-1 and JAK-3, which in turn phosphorylate and activate the transcription factor Stat-6. […] To study the effect of inhibitors on the JAK family kinases, human Ramos B cells were stimulated with human IL-4 and the surface expression of CD23 was measured.
The day before the experiment, Ramos B-cells were diluted to 3.5×10^5 cells/mL to ensure that they were in a logarithmic growth phase.
Cells were spun down and suspended in RPMI with 5% serum. 5×10^4 cells were used per point in a 96-well tissue culture plate. Cells were pre-incubated with compound or DMSO (Sigma-Aldrich, St. Louis, Mo., Cat No. D2650) vehicle control for 1 hour in a 37° C. incubator. Cells were then stimulated with IL-4 (Peprotech Inc., Rocky Hill, N.J., Cat No. 200-04) for a final concentration of 50 units/mL for 20-24 hours. […] Detection was performed using a BD LSR I System Flow Cytometer, purchased from Becton Dickinson Biosciences of San Jose, Calif.
The compound designations in Table IV are consistent with those of Tables I-II above.

Structures can show the parent of a compound that is named as a salt. Bounds are passed on as bounds.

`COc1cc(Nc2ncc(F)c(Nc3cc(F)c4oc(=O)[nH]c4c3)n2)cc(C)c1F` [Compound I-191, 5-(2-(4-fluoro-3-methoxy-5-methylphenylamino)-5-fluoropyrimidin-4-ylamino)-7-fluorobenzo[d]oxazol-2(3H)-one trifluoroacetate salt] came in with an IC50 of less than 0.5 µM. With `O=C1COc2cc(Nc3ncc(F)c(Nc4ccc5oc(=O)[nH]c5c4)n3)ccc2N1` [II-25, 7-(4-(2,3-dihydro-2-oxobenzo[d]oxazol-5-ylamino)-5-fluoropyrimidin-2-ylamino)-2H-benzo[b][1,4]oxazin-3(4H)-one formate salt] the figure was less than 0.5 µM; with `[2H]C([2H])([2H])c1c(C)cc(Nc2ncc(Cl)c(Nc3ccc4oc(=O)[nH]c4c3)n2)cc1C` [Compound I-36, 5-(5-chloro-2-(3,5-dimethyl-4-d3-methyl)phenylamino)pyrimidin-4-ylamino)benzo[d]oxazol-2(3H)-one trifluoroacetate salt], less than 0.5 µM. The compound `COC(=O)c1cnc(Nc2ccc(C(N)=O)cc2)nc1Nc1ccc2oc(=O)[nH]c2c1` [Compound I-54, 2-(4-Carbamoyl-phenylamino)-4-(2-oxo-2,3-dihydro-benzooxazol-5-ylamino)-pyrimidine-5-carboxylic acid methyl ester trifluoroacetate salt] displayed an IC50 greater than 10 µM. In the case of `Cc1cnc(Nc2cccc(C#N)c2F)nc1Nc1ccc2oc(=O)[nH]c2c1` [Compound I-72, 2-fluoro-3-(5-methyl-4-(2-oxo-2,3-dihydrobenzo[d]oxazol-5-ylamino)pyrimidin-2-ylamino)benzonitrile trifluoroacetate salt], the IC50 is less than 0.5 µM.

Regarding `COC(=O)c1cc(Nc2ncc(C)c(Nc3ccc4oc(=O)[nH]c4c3)n2)cc(C)c1C` [Compound I-144, N2-(3,4-dimethyl-5-methoxycarbonyl)phenyl-5-methyl-N4-(2-oxo-2,3-dihydro-1,3-benzoxazol-5-yl)-2,4-pyrimidinediamine], the IC50 is less than 0.5 µM.

In turn, `COc1c(F)ccc(Nc2ncc(F)c(Nc3cc(F)c4oc(=O)[nH]c4c3)n2)c1F` [Compound I-193, 5-(2-(2,4-difluoro-3-methoxyphenylamino)-5-fluoropyrimidin-4-ylamino)-7-fluorobenzo[d]oxazol-2(3H)-one trifluoroacetate salt] came in with a half-inhibitory concentration (IC50) of 0.5 to 5 µM.

For `CN1C/C=C\Cc2ccc(Nc3ncc(F)c(Nc4ccc5oc(=O)[nH]c5c4)n3)cc2C1=O` [II-4, (Z)-5-(5-fluoro-2-(2-methyl-1-oxo-1,2,3,6-tetrahydrobenzo[c]azocin-9-ylamino)pyrimidin-4-ylamino)benzo[d]oxazol-2(3H)-one formate salt], the IC50 was less than 0.5 µM. Compound `CCN(c1cc(C)c(C)c(C)c1)c1ncc(C)c(Nc2ccc3oc(=O)[nH]c3c2)n1` [Compound I-139, N2-ethyl-N2-(3,4,5-trimethyl)phenyl-5-methyl-N4-(2-oxo-2,3-dihydro-1,3-benzoxazol-5-yl)-2,4-pyrimidinediamine] returned a half-inhibitory concentration (IC50) greater than 10 µM. On to `Cc1cnc(Nc2cc(C)c3c(c2)C(=O)OC3)nc1Nc1ccc2oc(=O)[nH]c2c1` [II-13, 5-methyl-N4-(2-oxo-2,3-dihydro-1,3-benzoxazol-5-yl)-N2-(1-oxo-1,3-dihydro-4-methylisobenzofuran-6-yl)-2,4-pyrimidinediamine], for which the half-inhibitory concentration (IC50) was less than 0.5 µM. Compound `COc1ccc(Nc2ncc(F)c(Nc3ccc4oc(=O)[nH]c4c3)n2)cc1` [Compound I-196, 5-(2-(4-methoxyphenylamino)-5-fluoropyrimidin-4-ylamino)benzo[d]oxazol-2(3H)-one formate salt] registered an IC50 of less than 0.5 µM. `NC(=O)c1cccc(Nc2nccc(Nc3ccc4oc(=O)[nH]c4c3)n2)c1` [Compound I-3, 3-(4-(2-oxo-2,3-dihydrobenzo[d]oxazol-5-ylamino)pyrimidin-2-ylamino)benzamide trifluoroacetate salt] came in with an IC50 of 0.5 to 5 µM. With `C#Cc1cnc(Nc2cc(C)c(C)c(C)c2)nc1Nc1ccc2oc(=O)[nH]c2c1` [Compound I-18, 5-[5-Ethynyl-2-(3,4,5-trimethyl-phenylamino)-pyrimidin-4-ylamino]-3H-benzooxazol-2-one trifluoroacetate salt] the figure was less than 0.5 µM; with `COc1cc(Nc2ncc(F)c(Nc3ccc4oc(=O)[nH]c4c3)n2)cc(Cl)c1OC` [Compound I-185, 5-(2-(3-chloro-4,5-dimethoxyphenylamino)-5-fluoropyrimidin-4-ylamino)benzo[d]oxazol-2(3H)-one trifluoroacetate salt], less than 0.5 µM; with `CCc1ccc(Nc2ncc(Cl)c(Nc3ccc4oc(=O)[nH]c4c3)n2)c(F)c1OC` [Compound I-71, 5-(5-chloro-2-(4-ethyl-2-fluoro-3-methoxyphenylamino)pyrimidin-4-ylamino)benzo[d]oxazol-2(3H)-one trifluoroacetate salt], less than 0.5 µM. `Cc1cnc(Nc2cc(C)c(C)c(C)c2)nc1Nc1ccc2oc(=O)n(COP(=O)(O)O)c2c1` [Compound I-132, 5-methyl-N4-[3-(phosphonooxy)methyl-2-oxo-2,3-dihydro-1,3-benzoxazol-5-yl]-N2-(3,4,5-trimethyl)phenyl-2,4-pyrimidinediamine Tris salt] yielded an IC50 of less than 0.5 µM. Turning to `COc1c(F)ccc(Nc2ncc(Cl)c(Nc3ccc4oc(=O)[nH]c4c3)n2)c1F` [Compound I-7, 5-(5-chloro-2-(2,4-difluoro-3-methoxyphenylamino)pyrimidin-4-ylamino)benzo[d]oxazol-2(3H)-one trifluoroacetate salt], the IC50 is less than 0.5 µM. With `N#Cc1cccc(Nc2ncc(Cl)c(Nc3ccc4oc(=O)[nH]c4c3)n2)c1F` [Compound I-73, 3-(5-chloro-4-(2-oxo-2,3-dihydrobenzo[d]oxazol-5-ylamino)pyrimidin-2-ylamino)-2-fluorobenzonitrile trifluoroacetate salt] the figure was less than 0.5 µM.

For the compound `COCCOc1c(C)ccc(Nc2ncc(C)c(Nc3ccc4oc(=O)[nH]c4c3)n2)c1F` [Compound I-53, 5-{2-[2-Fluoro-3-(2-methoxy-ethoxy)-4-methyl-phenylamino]-5-methyl-pyrimidin-4-ylamino}-3H-benzooxazol-2-one], the half-maximal inhibitory concentration (IC50) was less than 0.5 µM. `COc1ccc(F)c(Nc2ncc(F)c(Nc3ccc4oc(=O)[nH]c4c3)n2)c1` [Compound I-119, 5-(5-fluoro-2-(2-fluoro-5-methoxyphenylamino)pyrimidin-4-ylamino)benzo[d]oxazol-2(3H)-one]: the IC50 lay within 5 to 10 µM. `COC(=O)c1cnc(Nc2cc(OC)cc(C(F)(F)F)c2)nc1Nc1ccc2oc(=O)[nH]c2c1` [Compound I-55, 2-(3-Methoxy-5-trifluoromethyl-phenylamino)-4-(2-oxo-2,3-dihydro-benzooxazol-5-ylamino)-pyrimidine-5-carboxylic acid methyl ester trifluoroacetate salt]: the 50% inhibitory concentration (IC50) is greater than 10 µM. In turn, `Cc1ccc(Nc2ncc(Cl)c(Nc3ccc4oc(=O)[nH]c4c3)n2)cc1N(C)C` [Compound I-33, 5-(5-chloro-2-(3-(dimethylamino)-4-methylphenylamino)pyrimidin-4-ylamino)benzo[d]oxazol-2(3H)-one] showed an IC50 of less than 0.5 µM.
